The source of these data is patent publication US8425840B2, “Microchip and blood monitoring device” (Fujimori Kogyo Co., Ltd., priority 2007, dated 2013).

The test system of the test is platelets. In words: measurement of platelet function using the thrombus monitoring system C (microchip 4, citrated whole blood mixed with ADP under flow). Type of test: cell-based. To be noted: for time after the beginning of the measurement at which an obvious platelet aggregate was formed in the thrombus formation chamber: collagen/PT reagent coated chamber. As to the method:
The stirring section 413 was in the shape of a circle having a diameter of […] and narrowing in fan-like fashion in the direction toward the downstream, and its depth was 1.2 mm. The stirring bar 417 was a stirring bar in the shape of a cylinder having a length of 2 mm and a diameter of 1 mm, whose surface was coated with nickel.
As the thrombus-inducing agent, 24 μL of a mixture of collagen type I (Nitta Gelatin Inc.) and PT reagent (Sysmex Corporation) was applied in a square shape sizing 1 cm×1 cm, and dried under reduced pressure at −0.08 MPa for 3 hours. The coating with the thrombus-inducing material was carried out such that the merged channel 403 was not passing the center of the square area on which the thrombus-inducing material was applied, that is, such that the merged channel 403 was passing 2.5 mm away from an edge of the square, when the substrate 400 and the substrate 410 were bonded to each other. As the collagen type I, one having a concentration of 3 mg/ml was used. As the PT reagent, one prepared by dissolving 1 vial of PT reagent manufactured by Sysmex Corporation in 2 ml of purified water and dialyzing the resulting solution against purified water overnight, followed by mixing the resultant at a ratio of 1:1 was used.
To the blood reservoir 433, the first pump 420 was connected, and the first connection nozzle 435 and the second connection nozzle 436 were connected to the second pump 421 and the third pump 422, respectively.
Mineral oil was filled in the first pump 420; purified water and 1 μM or 2 μM ADP solution were filled in the second pump 421; and 0.5 M EDTA (pH 10) solution was filled in the third pump 422.
Blood prepared by mixing the blood immediately after collection with 3.2% sodium citrate solution at a volume ratio between the blood and the sodium citrate solution being 9:1 was filled in the blood reservoir 433.
The programs executed for the first pump 420, second pump 421 and the third pump 422 were the same with those in Example 7 (Table 3). […]

`Nc1ncnc2c1ncn2[C@@H]1O[C@H](COP(=O)(O)OP(=O)(O)O)[C@@H](O)[C@H]1O` [ADP, adenosine diphosphate]: the “time after the beginning of the measurement at which an obvious platelet aggregate was formed in the thrombus formation chamber” value (1 μM ADP solution in second pump) stood at 15 min and the “time after the beginning of the measurement at which an obvious platelet aggregate was formed in the thrombus formation chamber” value (2 μM ADP solution in second pump) came to 10 min. Where the note is “1 μM or 2 μM ADP in second pump”, the “increase in pressure due to platelet aggregate (pressure sensor)” value is recorded as “no increase in pressure occurred”.
